Paper PMC9270351, “Conjugates of urolithin A with NSAIDs, their stability, cytotoxicity, and anti-inflammatory potential” (Scientific Reports, 2022)
Values belong to the compound of their own block, whether it stands above or below them.

What was measured:
[1] = system: THP-1 derived macrophages; assay: MTT assay, cell viability; type: cell-based, human; details: tested concentration range 2–50 µM; 1 h treatment, then LPS for 3 or 24 h
Protocol: THP-1 human monocytic cells (DSMZ, Braunschweig, Germany) were studied between passages 4 and 19. Monocytes were differentiated into THP-1 derived macrophages according to modified, previously described protocol. THP-1 monocytes were seeded in 24-well plates at a density of 400,000 cells per well. Cells were incubated at 37 °C under humidified 5% CO2 in the culture medium containing RPMI 1640 without phenol red supplemented with 10% FBS and 2 mM glutamine. In order to differentiate THP-1 monocytes into macrophages, cells were treated with 25 ng/mL PMA followed by 48 h incubation, medium change and an additional 24 h resting. Selected UADs were added to THP-1 derived macrophages at concentrations 2–50 µM and left for 1-h resting. Next, cells were treated with 10 ng/ml LPS. […]
THP-1 monocytes were seeded in 24-well plates at a density of 400,000 cells per well and differentiated into THP-1 derived macrophages according to the method described above. […] After medium removal, crystals were dissolved in 400 µL DMSO, 200 µL of solution was transferred to 96-well plate and the absorbance of the solution was measured at λ = 570 nm with the correction to 630 nm using a microplate reader. […]

[2] = system: THP-1 monocytes; assay: PI flow cytometric assay, cell viability; type: cell-based, human; details: 24-h incubation
Protocol: THP-1 monocytes were seeded in 24-well plates at a density of 400,000. Selected UADs (2–50 µM), control (0.25% DMSO in PBS), UA (50 µM) and parthenolide (25 µM) as a control were added to THP-1 monocytes and left for 24-h incubation at 37 °C under humidified 5% CO2 in the culture medium containing RPMI 1640 without phenol red supplemented with 10% FBS and 2 mM glutamine. After that time, cell suspensions were transferred to Eppendorf tubes, centrifuged, stained with propidium iodide (PI) and analyzed using FACS (MACSQuant® Analyze, Miltenyi Biotec, Bergisch Gladbach, Germany). The cell viability was reported as the percentage of PI(−) cells.

[3] = system: TNF-α secretion in LPS-stimulated THP-1 derived macrophages; assay: TNF-α secretion of LPS-stimulated macrophages (ELISA); type: cell-based, human; details: over tested concentrations; 1 h treatment, then LPS 3 h
Protocol: (§1) THP-1 human monocytic cells (DSMZ, Braunschweig, Germany) were studied between passages 4 and 19. Monocytes were differentiated into THP-1 derived macrophages according to modified, previously described protocol. THP-1 monocytes were seeded in 24-well plates at a density of 400,000 cells per well. Cells were incubated at 37 °C under humidified 5% CO2 in the culture medium containing RPMI 1640 without phenol red supplemented with 10% FBS and 2 mM glutamine. In order to differentiate THP-1 monocytes into macrophages, cells were treated with 25 ng/mL PMA followed by 48 h incubation, medium change and an additional 24 h resting. Selected UADs were added to THP-1 derived macrophages at concentrations 2–50 µM and left for 1-h resting. Next, cells were treated with 10 ng/ml LPS. Successful differentiation was confirmed by the presence of distinguishing macrophage markers such as: cell adherence, changes in morphology and response to bacterial LPS stimulation and, consequently, TNF-α secretion.
(§2) After treatment with the test compounds for 1 h and subsequent stimulation with LPS for 3 h (for TNF-α secretion measurements) or 24 h (for IL-10 and IL-6 secretion measurements) supernatants were collected. The secretion of cytokines levels was measured by ELISA kits according to the manufacturer’s instruction (Human TNF-α, Human IL-10 and Human IL-6 ELISA kits, BD Biosciences, Franklin Lakes, NJ, USA). […]

[4] = system: IL-10 secretion in LPS-stimulated THP-1 derived macrophages; assay: IL-10 secretion of LPS-stimulated macrophages (ELISA); type: cell-based, human; details: over tested concentrations; 1 h treatment, then LPS 24 h
Protocol: as §1, §2

[5] = system: IL-6 secretion in LPS-stimulated THP-1 derived macrophages; assay: IL-6 secretion of LPS-stimulated macrophages (ELISA); type: cell-based, human; details: 1 h treatment, then LPS 24 h
Protocol: as §1, §2

- melting point: 114.4 to 115.7 °C
Structure (SMILES): COc1ccc2c(c1)c(=O)oc1cc(OC(=O)C(C)c3ccc(CC(C)C)cc3)ccc12 (stereo not shown) [Mix 7, 8-methoxy-6-oxo-6H-benzo[c]chromen-3-yl 2-(4-isobutylphenyl)propanoate]

- melting point: 186.7 to 189.2 °C
Structure (SMILES): COc1ccc2c(c1)c(=O)oc1cc(OC(=O)c3ccccc3Nc3cccc(C)c3C)ccc12 [Mix 8, 8-methoxy-6-oxo-6H-benzo[c]chromen-3-yl 2-((2,3-dimethylphenyl)amino)benzoate]

- melting point: 207.3 to 208.5 °C
Structure (SMILES): COc1ccc2c(c1)c(=O)oc1cc(OC(=O)Cc3ccccc3Nc3c(Cl)cccc3Cl)ccc12 [Mix 9, 8-methoxy-6-oxo-6H-benzo[c]chromen-3-yl 2-(2-((2,6-dichlorophenyl)amino)phenyl)acetate]

Structure (SMILES): COc1ccc2c(c1)c(=O)oc1cc(OC(=O)c3ccccc3OC(C)=O)ccc12 [Mix 10, 8-methoxy-6-oxo-6H-benzo[c]chromen-3-yl 2-acetoxybenzoate]
- melting point: 192.6 to 193.5 °C

Structure (SMILES): O=c1oc2cc(O)ccc2c2ccc(O)cc12 [UA, 3,8-dihydroxy-6H-benzo[c]chromen-6-one]
- Cell viability / cytotoxic effect (MTT) [1]: no cytotoxic effect was observed
- Cell viability (PI-stained cells, flow cytometry) ([2]; 50 µM): Slight, yet statistically significant decline in monocytes viability
- Effect on TNF-α secretion [3]: inhibitory effect on TNF-α secretion in a dose-dependent manner
- Effect on IL-10 secretion [4]: did not significantly affect IL-10 secretion
- Effect on IL-6 secretion ([5]; 50 µM): inhibited secretion of IL-6

Structure (SMILES): Cc1cccc(Nc2ccccc2C(=O)O)c1C [mefenamic acid]
- Effect on TNF-α secretion [3]: stimulating effect
- Effect on IL-10 secretion [4]: did not influence IL-10 secretion
- Effect on IL-6 secretion ([5]; over tested concentrations): increased IL-6 production in a dose-dependent manner

Structure (SMILES): C=C1C(=O)O[C@H]2[C@H]1CC/C(C)=C/CC[C@@]1(C)O[C@@H]21 [parthenolide]
- Cell viability (PI-stained cells, flow cytometry) ([2]; 25 µM, positive control): decreased THP-1 viability
